Reference: US8551997B2, “Structural-based inhibitors of the glutathione binding site in aldose reductase, methods of screening therefor and methods of use” (The Board of Regents of the University of Texas System, priority 2004, dated 2013)

Key:
rat VSMC cells = assay: High glucose-induced TNF-a production in VSMC; type: cell-based
Description: Growth-arrested VSMC in 5.5 mM glucose (NG) were preincubated for 1 h without or with apocyanin (25 mM), D609 (100 mM), calphostin C (0.2 mM), N-acetyl cysteine (10 mM) and NF-kB inhibitor (18 mM) (FIG. 4A) and without or with sorbinil or tolrestat (10 mM each) (FIG. 4B) followed by the addition of glucose (19.5 mM) and incubation for the indicated times. AR antisense ablated VSMC were incubated with HG for the indicated times (FIG. 4C).
Growth-arrested VSMC in 5.5 mM glucose (NG) were preincubated for 1 h without or with apocyanin (25 mM), D609 (100 mM), calphostin C (0.2 mM), N-acetyl cysteine (10 mM) and NF-kB inhibitor (18 mM) respectively, followed by the addition of 19.5 mM glucose, after which the cells were incubated for 12 and 24 hrs.

C57BL/6 mice [1] = assay: LPS-induced cytokines in serum and heart of mice; type: in vivo, mouse
Description: At the indicated times, TNF-a, IL-6, IL-12, interferon (IFN)-g, IL-1b, and monocyte chemo attractant protein (MCP)-1 levels in serum and in heart homogenates were determined (FIGS. 6A-6D). Prostaglandin E2 (PGE-2), cyclo-oxygenase 2 (COX-2), and nitrate levels were measured separately (FIG. 6E). Solid symbols, values from the mice injected with LPS; open symbols, values from the mice treated with LPS and sorbinil.
In sorbinil-treated mice, however, serum cytokine levels increased only 2-fold, began declining within 4 h, and returned to baseline levels within 12 h.

C57BL/6 mice [2] = assay: LPS-induced cardiac dysfunction, M-mode echocardiography; type: in vivo, mouse
Caco-2 cells [3] = assay: Western blot of Cox-1 and Cox-2 in Caco-2 cells; type: cell-based, human
Description: To examine expression of any of Cox-1, Cox-2, phospho-PKC-2, GAPDH, E2F1, Cyclin D1, Cyclin E, and iNOS proteins, Western blot analyses were carried by known methods (15). Equal amounts of protein from cell extracts were subjected to 12% SDS-PAGE followed by transfer of proteins to nitrocellulose filters, probing with the indicated antibodies, and the antigen-antibody complex was detected by enhanced chemiluminescence (Pierce, Piscataway, N.J., USA).

Caco-2 cells [4] = assay: NF-kB-dependent reporter SEAP expression assay; type: cell-based, human
Description: Caco-2 cells (1.5×10^5 cells/well) were plated in six-well plates and after attachment overnight, were serum-starved in optiMEM medium for 24 h with or without aldose reductase inhibitor, sorbinil (20 μM) and were transiently transfected with pNF-kB-SEAP construct or control plasmid pTALSEAP DNA (Clontech, USA) using the lipofectamine plus reagent. After 6 h of transfection, cells were treated either with 10 ng/ml BFGF or PDGF for 48 h in DMEM medium containing 0.1% FBS. The cell culture medium was then harvested and analyzed for SEAP activity, essentially as described by the manufacturer (Clontech Laboratories, Palo Alto, Calif.), using a 96-well chemiluminescence plate reader and Kodak Image Station 2000R.

Caco-2 cells [5] = assay: Membrane-bound PKC activity in Caco-2 cells; type: cell-based, human
Description: PKC activity was measured using the Promega-Sigma TECT PKC assay system as described earlier (15). Briefly, aliquots of the reaction mixture (25 mM Tris-Hcl pH 7.5, 1.6 mg/mL phosphatidylserine, 0.16 mg/mL diacylglycerol, and 50 mM MgCl2) were mixed with […] (3,000 Ci/mmol, 10 μCi/μL) and incubated at 30° C. for 10 min. To stop the reaction, 7.5 M guanidine hydrochloride were added and the phosphorylated peptide was separated on binding paper. The extent of phosphorylation was detected by measuring radioactivity retained on the paper.

A549 cells = assay: Flowcytometric cell cycle analysis, A549; type: cell-based, human; conditions: 10% FBS
Description: The Caco-2 and A549 cells were grown separately in 6 well plates at a density of approximately 1.5×10^5 cells/well. Growth-arrested Caco-2 cells were pre-incubated with or without sorbinil 20 μM or carrier for 24 h and then stimulated with either 10 ng/ml BFGF or PDGF for another 24 h. After 24 hrs A549 cells were incubated with or without sorbinil at different concentrations for another 24 h.
The Caco-2 and A549 cells were then washed with PBS and harvested by trypsinization. Cellular DNA was stained with low and high salt solutions. Briefly, cells were resuspended in 250 μl of solution A, low salt stain, containing polyetheleneglycol (30 mg/ml), propidium iodide (0.05 mg/ml), triton-x-100 (1 μl/ml), sodium citrate 4 mM, RNAse A 10 μg/ml and incubated at 37° C. for 20 min followed by the addition of 250 μl of solution B, high salt stain containing 400 mM NaCl instead of 4 mM sodium citrate in solution A, and incubated overnight at 4° C. Cell cycle analysis was performed with a minimum of 10,000 events per analysis by using FACScan flow cytometer (Becton, Dickinson and Co., San Jose, Calif., USA).

[6] = sorbinil pretreatment, LPS 4 mg/kg

## (S)-6-fluorospiro[chroman-4,4′-imidazolidine]-2,5′-dione [sorbinil]
Rat VSMC cells; media containing 5.5 mM glucose, mannitol, or 3-OMG
  basal levels of TNF-a: did not affect
Rat VSMC cells; preincubated 1 h, then 19.5 mM glucose, apocyanin 25 mM, calphostin C 0.2 mM, N-acetyl cysteine 10 mM, sorbinil or tolrestat 10 mM each, or AR antisense ablated
  high glucose-induced TNF-a secretion: prevents
C57BL/6 mice [1]; sorbinil 2 h after LPS exposure
  maladaptive systemic inflammatory response in serum: blunted
C57BL/6 mice [1]; [6]
  time at which serum cytokine levels began declining: ≤ 4 h
  time at which serum cytokine levels returned to baseline: ≤ 12 h
C57BL/6 mice [1]; sorbinil pretreatment, LPS 4 mg/kg peritoneally
  increase of serum cytokine levels after LPS: 2 fold
C57BL/6 mice [2]; at 8 h after LPS, pretreated with sorbinil
  percent fractional shortening (FS %): recovered significantly
C57BL/6 mice [2]; within 24 h
  general activity level of LPS-exposed mice: normal grooming and other activities
Caco-2 cells [3]
  growth factor-induced Cox-2 protein: attenuated
  levels of constitutive Cox-1 protein: not affected
Caco-2 cells [3]; sorbinil 24 h, GS-DHN-ester 24 h
  GS-DHN-induced Cox-2 expression: had no effect
Caco-2 cells [3]; sorbinil 24 h, aldehydes 24 h
  HNE and GS-HNE-induced Cox-2 expression: significantly prevented
Caco-2 cells [4]; sorbinil 20 μM
  inhibition of BFGF and PDGF-induced NF-κB-dependent reporter (SEAP) activation: > 60%
Caco-2 cells [4]; sorbinil alone
  NF-κB-SEAP activity: did not affect
Caco-2 cells [5]
  growth factor-induced increase in membrane-bound PKC activity: significantly prevented
Caco-2 cells [5]; sorbinil by itself
  total PKC activity: did not alter
A549 cells; 25 μM
  percentage of cells in G1: 58.79%
  percentage of cells in G2: 6.06%
  percentage of cells in S: 35.14%
A549 cells; 50 μM
  percentage of cells in G1: 59.24%
  percentage of cells in G2: 5.47%
  percentage of cells in S: 35.29%
A549 cells; 75 μM
  percentage of cells in G1: 64.21%
  percentage of cells in G2: 5.55%
  percentage of cells in S: 30.24%
A549 cells; 100 μM
  percentage of cells in G1: 65.55%
  percentage of cells in G2: 4.8%
  percentage of cells in S: 29.75%
